Measured values as given in patent EP0351685A2, “Process for preparing n15-alkyl derivatives of teicoplanin compounds” (GRUPPO LEPETIT S.p.A., priority 1988, dated 1990).
In brackets after ≈: the same amount, converted by molar mass.

Experiments:
Test in all cases: In vitro antibacterial activity (MIC), standard agar-dilution test
Type in all cases: cell-based
E. coli SKF 12140 = details: Escherichia coli, SKF12140, inoculum about 10⁴ CFU/ml, 18-24 h at 37°C
S. haemolyticus L 602 = details: Staphylococcus haemolyticus, L602, inoculum about 10⁴ CFU/ml, 18-24 h at 37°C
Protocol: (§1) Isosensitest broth (Oxoid) and Todd-Hewitt broth (Difco) are used for growing staphylococci and streptococci, respectively. Broth cultures are diluted so that the final inoculum is about 10⁴ colony forming units/ml (CFU/ml).

S. pneumoniae UC41 = details: Streptococcus pneumoniae, inoculum about 10⁴ CFU/ml, 18-24 h at 37°C
Protocol: as §1

S. faecalis ATCC 7080 = details: Enterococcus faecalis, ATCC7080, inoculum about 10⁴ CFU/ml, 18-24 h at 37°C
Protocol: as §1

S. aureus Tour = details: Staphylococcus aureus, inoculum about 10⁴ CFU/ml, 18-24 h at 37°C
Protocol: as §1

S. pyogenes C203 = details: Streptococcus pyogenes, inoculum about 10⁴ CFU/ml, 18-24 h at 37°C
Protocol: as §1

[1] = system: S. epidermidis ATCC 12228; details: Staphylococcus epidermidis, ATCC12228, inoculum about 10⁴ CFU/ml, 18-24 h at 37°C
Protocol: as §1

P. aeruginosa ISM = details: Pseudomonas aeruginosa, inoculum about 10⁴ CFU/ml, 18-24 h at 37°C
[2] = system: P. vulgaris X19H ATCC 881; details: Proteus vulgaris, ATCC881, inoculum about 10⁴ CFU/ml, 18-24 h at 37°C
[3] = S. aureus Tour + 30% bovine serum

SMILES | MIC (E. coli SKF 12140) [µg/mL] | MIC (S. haemolyticus L 602) [µg/mL] | MIC (S. pneumoniae UC41) [µg/mL] | MIC (S. faecalis ATCC 7080) [µg/mL] | MIC (S. aureus Tour; [3]) [µg/mL] | MIC (S. aureus Tour; S. aureus Tour) [µg/mL] | MIC (S. pyogenes C203) [µg/mL] | MIC [1] [µg/mL] | MIC (P. aeruginosa ISM) [µg/mL] | MIC [2] [µg/mL]
CCNC1C(=O)NC2Cc3ccc(c(Cl)c3)Oc3cc4cc(c3O)Oc3ccc(cc3Cl)C(O)C3NC(=O)C(NC(=O)C4NC(=O)C(NC2=O)c2cc(O)cc(c2)Oc2cc1ccc2O)c1ccc(O)c(c1)-c1c(O)cc(O)cc1C(C(=O)O)NC3=O (stereo not shown) [Compound 9] | > 128 | 0.25 (≈ 0.204 µM) | 0.12 (≈ 0.0978 µM) | 0.12 (≈ 0.0978 µM) | 0.25 | 0.06 (≈ 0.0489 µM) | 0.06 (≈ 0.0489 µM) | 0.03 (≈ 0.0245 µM) | > 128 | > 128
O=C1NC2C(=O)NC3C(=O)NC4C(=O)NC(C(=O)NC(C(=O)O)c5cc(O)cc(O)c5-c5cc4ccc5O)C(O)c4ccc(c(Cl)c4)Oc4cc3cc(c4O)Oc3ccc(cc3Cl)CC1NC(=O)C(NC1CCCC1)c1ccc(O)c(c1)Oc1cc(O)cc2c1 (stereo not shown) [Compound 11] | > 128 |  | 0.06 (≈ 0.0474 µM) | 0.25 (≈ 0.197 µM) | 0.5 | 0.06 (≈ 0.0474 µM) | 0.12 (≈ 0.0947 µM) | 0.03 (≈ 0.0237 µM) | > 128 | > 128
